Data published in the NIST ThermoML archive (doi:10.1016/j.jct.2005.07.011).
± gives the expanded uncertainty stated by the source.

Test: excess molar enthalpy (molar enthalpy of mixing); xn = mol fraction of the nth substance listed
Settings: Liquid

CCCCCO [pentan-1-ol] + COC(=O)OC
Settings	excess molar enthalpy [kcal/mol]
298.15 K, 1000 kPa, x2 = 0.05	0.133 ± 0.00502
298.15 K, 1000 kPa, x2 = 0.101	0.246 ± 0.00574
298.15 K, 1000 kPa, x2 = 0.151	0.334 ± 0.00669
298.15 K, 1000 kPa, x2 = 0.2	0.405 ± 0.00741
298.15 K, 1000 kPa, x2 = 0.25	0.459 ± 0.00813
298.15 K, 1000 kPa, x2 = 0.3	0.498 ± 0.0086
298.15 K, 1000 kPa, x2 = 0.35	0.524 ± 0.00884
298.15 K, 1000 kPa, x2 = 0.4	0.542 ± 0.00908
298.15 K, 1000 kPa, x2 = 0.45	0.552 ± 0.00908
298.15 K, 1000 kPa, x2 = 0.5	0.552 ± 0.00908
298.15 K, 1000 kPa, x2 = 0.55	0.541 ± 0.00884
298.15 K, 1000 kPa, x2 = 0.601	0.52 ± 0.0086
298.15 K, 1000 kPa, x2 = 0.651	0.493 ± 0.00813
298.15 K, 1000 kPa, x2 = 0.701	0.454 ± 0.00741
298.15 K, 1000 kPa, x2 = 0.75	0.403 ± 0.00669
298.15 K, 1000 kPa, x2 = 0.851	0.273 ± 0.00454
298.15 K, 1000 kPa, x2 = 0.899	0.196 ± 0.00335
298.15 K, 1000 kPa, x2 = 0.949	0.104 ± 0.00198
313.15 K, 100 kPa, x2 = 0.05	0.138 ± 0.00526
313.15 K, 100 kPa, x2 = 0.101	0.259 ± 0.00621
313.15 K, 100 kPa, x2 = 0.151	0.354 ± 0.00693
313.15 K, 100 kPa, x2 = 0.2	0.432 ± 0.00765
313.15 K, 100 kPa, x2 = 0.25	0.494 ± 0.00837
313.15 K, 100 kPa, x2 = 0.301	0.541 ± 0.00884
313.15 K, 100 kPa, x2 = 0.351	0.571 ± 0.00932
313.15 K, 100 kPa, x2 = 0.402	0.593 ± 0.00956
313.15 K, 100 kPa, x2 = 0.451	0.602 ± 0.0098
313.15 K, 100 kPa, x2 = 0.501	0.601 ± 0.0098
313.15 K, 100 kPa, x2 = 0.549	0.59 ± 0.00956
313.15 K, 100 kPa, x2 = 0.601	0.567 ± 0.00908
313.15 K, 100 kPa, x2 = 0.648	0.538 ± 0.00884
313.15 K, 100 kPa, x2 = 0.749	0.446 ± 0.00765
313.15 K, 100 kPa, x2 = 0.799	0.376 ± 0.00669
313.15 K, 100 kPa, x2 = 0.851	0.304 ± 0.00598
313.15 K, 100 kPa, x2 = 0.899	0.207 ± 0.0055
313.15 K, 100 kPa, x2 = 0.949	0.103 ± 0.00454
313.15 K, 1000 kPa, x2 = 0.05	0.134 ± 0.00526
313.15 K, 1000 kPa, x2 = 0.101	0.255 ± 0.00621
313.15 K, 1000 kPa, x2 = 0.151	0.352 ± 0.00669
313.15 K, 1000 kPa, x2 = 0.2	0.427 ± 0.00765
313.15 K, 1000 kPa, x2 = 0.25	0.49 ± 0.00837
313.15 K, 1000 kPa, x2 = 0.301	0.537 ± 0.00884
313.15 K, 1000 kPa, x2 = 0.351	0.569 ± 0.00932
313.15 K, 1000 kPa, x2 = 0.401	0.591 ± 0.00956
313.15 K, 1000 kPa, x2 = 0.45	0.601 ± 0.0098
313.15 K, 1000 kPa, x2 = 0.501	0.601 ± 0.0098
313.15 K, 1000 kPa, x2 = 0.549	0.59 ± 0.00956
313.15 K, 1000 kPa, x2 = 0.601	0.566 ± 0.00908
313.15 K, 1000 kPa, x2 = 0.652	0.536 ± 0.00884
313.15 K, 1000 kPa, x2 = 0.749	0.455 ± 0.00765
313.15 K, 1000 kPa, x2 = 0.799	0.387 ± 0.00693
313.15 K, 1000 kPa, x2 = 0.851	0.308 ± 0.00598
313.15 K, 1000 kPa, x2 = 0.899	0.225 ± 0.0055
313.15 K, 1000 kPa, x2 = 0.949	0.109 ± 0.00502
313.15 K, 10000 kPa, x2 = 0.05	0.136 ± 0.00526
313.15 K, 10000 kPa, x2 = 0.101	0.255 ± 0.00598
313.15 K, 10000 kPa, x2 = 0.151	0.352 ± 0.00669
313.15 K, 10000 kPa, x2 = 0.199	0.427 ± 0.00741
313.15 K, 10000 kPa, x2 = 0.249	0.488 ± 0.00813
313.15 K, 10000 kPa, x2 = 0.3	0.537 ± 0.00884
313.15 K, 10000 kPa, x2 = 0.349	0.569 ± 0.00932
313.15 K, 10000 kPa, x2 = 0.4	0.589 ± 0.00956
313.15 K, 10000 kPa, x2 = 0.449	0.599 ± 0.00956
313.15 K, 10000 kPa, x2 = 0.499	0.6 ± 0.0098
313.15 K, 10000 kPa, x2 = 0.551	0.588 ± 0.00956
313.15 K, 10000 kPa, x2 = 0.6	0.567 ± 0.00908
313.15 K, 10000 kPa, x2 = 0.65	0.535 ± 0.00884
313.15 K, 10000 kPa, x2 = 0.85	0.309 ± 0.00621
313.15 K, 10000 kPa, x2 = 0.899	0.222 ± 0.0055
313.15 K, 10000 kPa, x2 = 0.949	0.106 ± 0.00502
328.15 K, 1000 kPa, x2 = 0.05	0.137 ± 0.00526
328.15 K, 1000 kPa, x2 = 0.101	0.258 ± 0.00621
328.15 K, 1000 kPa, x2 = 0.151	0.356 ± 0.00693
328.15 K, 1000 kPa, x2 = 0.202	0.441 ± 0.00789
328.15 K, 1000 kPa, x2 = 0.252	0.506 ± 0.00884
328.15 K, 1000 kPa, x2 = 0.3	0.555 ± 0.00932
328.15 K, 1000 kPa, x2 = 0.35	0.592 ± 0.0098
328.15 K, 1000 kPa, x2 = 0.4	0.616 ± 0.0103
328.15 K, 1000 kPa, x2 = 0.45	0.629 ± 0.0103
328.15 K, 1000 kPa, x2 = 0.5	0.631 ± 0.0103
328.15 K, 1000 kPa, x2 = 0.55	0.622 ± 0.01
328.15 K, 1000 kPa, x2 = 0.601	0.6 ± 0.0098
328.15 K, 1000 kPa, x2 = 0.651	0.568 ± 0.00932
328.15 K, 1000 kPa, x2 = 0.701	0.525 ± 0.0086
328.15 K, 1000 kPa, x2 = 0.75	0.471 ± 0.00765
328.15 K, 1000 kPa, x2 = 0.851	0.327 ± 0.0055
328.15 K, 1000 kPa, x2 = 0.899	0.237 ± 0.00406
328.15 K, 1000 kPa, x2 = 0.949	0.122 ± 0.00227
